Experimental data published in ChEMBL document CHEMBL1128710, “Synthesis of cluster galactosides with high affinity for the hepatic asialoglycoprotein receptor” (J Med Chem, 1995).

Test: Affinity towards Asialoglycoprotein receptor using in vitro competition assay for [125I]- ASOR binding to the parenchymal liver cells of rat

| SMILES | Ki [µM] |
| --- | --- |
| COC(=O)CCCCC(=O)NCC(=O)NC(CO[C@@H]1O[C@H](CO)[C@H](O)[C@H](O)[C@H]1O)(CO[C@@H]1O[C@H](CO)[C@H](O)[C@H](O)[C@H]1O)CO[C@@H]1O[C@H](CO)[C@H](O)[C@H](O)[C@H]1O | > 390 |
| CC(C)CCC[C@@H](C)[C@H]1CC[C@H]2[C@@H]3CC=C4C[C@@H](OC(=O)CCC(=O)NCC(=O)NC(CO[C@@H]5O[C@H](CO)[C@H](O)[C@H](O)[C@H]5O)(CO[C@@H]5O[C@H](CO)[C@H](O)[C@H](O)[C@H]5O)CO[C@@H]5O[C@H](CO)[C@H](O)[C@H](O)[C@H]5O)CC[C@]4(C)[C@H]3CC[C@]12C | 14 |
| COC(=O)CCCCC(=O)NCC(=O)NC(COCOCCOCCOCCOCCO[C@H]1O[C@@H](CO)[C@@H](O)[C@@H](O)[C@@H]1O)(COCOCCOCCOCCOCCO[C@H]1O[C@@H](CO)[C@@H](O)[C@@H](O)[C@@H]1O)COCOCCOCCOCCOCCO[C@H]1O[C@@H](CO)[C@@H](O)[C@@H](O)[C@@H]1O | 0.2 |
| COC(=O)CCCCC(=O)NCC(=O)NC(COCOCCOCCO[C@@H]1O[C@H](CO)[C@H](O)[C@H](O)[C@H]1O)(COCOCCOCCO[C@@H]1O[C@H](CO)[C@H](O)[C@H](O)[C@H]1O)COCOCCOCCO[C@@H]1O[C@H](CO)[C@H](O)[C@H](O)[C@H]1O | 11 |
| COC(=O)CCCCC(=O)NCC(=O)NC(COCOCCO[C@@H]1O[C@H](CO)[C@H](O)[C@H](O)[C@H]1O)(COCOCCO[C@@H]1O[C@H](CO)[C@H](O)[C@H](O)[C@H]1O)COCOCCO[C@@H]1O[C@H](CO)[C@H](O)[C@H](O)[C@H]1O | 19 |
| CC(=O)N[C@@H]1[C@@H](O)[C@@H](O)[C@@H](CO)O[C@H]1O | 870 |
| COC(=O)CCCCC(=O)NCC(=O)NC(COCOCCCO[C@@H]1O[C@H](CO)[C@H](O)[C@H](O)[C@H]1O)(COCOCCCO[C@@H]1O[C@H](CO)[C@H](O)[C@H](O)[C@H]1O)COCOCCCO[C@@H]1O[C@H](CO)[C@H](O)[C@H](O)[C@H]1O | 1.2 |

Test: Affinity towards Asialoglycoprotein receptor using in vitro competition assay for [125I]- ASOR binding to the parenchymal liver cells of rabbit
Set-up: species or system Oryctolagus cuniculus

| SMILES | Ki [µM] |
| --- | --- |
| COC(=O)CCCCC(=O)NCC(=O)NC(CO[C@@H]1O[C@H](CO)[C@H](O)[C@H](O)[C@H]1O)(CO[C@@H]1O[C@H](CO)[C@H](O)[C@H](O)[C@H]1O)CO[C@@H]1O[C@H](CO)[C@H](O)[C@H](O)[C@H]1O | 150 |
